PubChem BioAssay (NCI)
Several values for one entry are separate records, joined by “and”; a condition that tells them apart may be missing. Equal entries are not always repeated.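 Briefly, cells in 96-well plates were exposed to five compound concentrations for 48 h, and endpoints were estimated by linear interpolation. Abbreviation: GI50, concentration required for 50% inhibition of growth. TGI: concentration producing complete growth inhibition.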

Test system: SK-MEL-2 melanoma
Assay: inhibition of tumour cell growth, NCI panel, 48 h

| Structure (SMILES) | GI50 [µM] | TGI [µM] |
| --- | --- | --- |
| Cc1nc2sc(C(=O)Nc3cccc(Cl)c3C)c(N)c2cc1C(=O)/C=C/c1ccccc1 | 0.304 | 8.61 |
| C=C1C(=O)O[C@H]2[C@H]1CC/C(CNC(=O)c1cc3cc(OC)ccc3[nH]1)=C\CC[C@@]1(C)O[C@@H]21 | 2.18 | 5.24 |
| O=S(=O)(NC1=NCCN1C(=S)SN1CCn2c1nsc2=S)c1ccc(Br)cc1 | 18.7 | 46.4 |
| CC(=O)N[C@H]1C=C[C@@H]2/C=C(C)/C=C/[C@@H](C)[C@H]([C@H](C)[C@H](O)[C@@H](C)NC(C)=O)OC(=O)/C=C/C=C(C)\C=C\[C@]2(C)C1 | 5.11 | 17.9 |
| O=C1c2ccccc2-c2c1c1ccccc1c(=O)n2CCCNCCCn1ccnc1 | 2.56 | 8.17 |
| ClCc1cccc(Cn2cnc3c(NC45CC6CC(CC(C6)C4)C5)ncnc32)c1 | 16.7 | 48.1 |
| CC(=O)CC(=O)Nc1ccc2ccccc2c1 | – | > 100 |
| COC(=O)c1cc2c(cc1Cl)SC(N(N(C)C)S(=O)(=O)c1ccc(Br)s1)=NS2(=O)=O | 3.2 | 9.66 |
| O=c1c2cc(Cl)ccc2oc2ccc(OCCCCCN3CCCCC3)cc12 | 2.09 | 7.96 |
| Cc1cc(I)cc(CN(C)CCCN2CCSCC2)c1O | 19.2 | 39.9 |
| O=C1c2ccccc2C(=O)N1CCCSc1ccccc1 | – | > 100 |
| CCOC(=O)Nc1nc2ccc(Cn3cccc3)cc2[nH]1 | – | > 100 |
| COc1cc(Nc2nccc(Nc3ccc4c(C)[nH]nc4c3)n2)cc(OC)c1OC | 1.23 | 5.09 |
| Nc1c(C(=O)c2ccc(Cl)cc2)sc(Nc2ccccc2)c1-c1nc2ccccc2s1 | 3.89 | 21 |
| CCOC(=O)c1cc(C#N)c(=O)n(/N=C(\C)c2ccncc2)c1O | > 100 | > 100 |
| COc1ccc(/C=N\NC(=O)CN2CCN(c3cc4c(cc3F)c(=O)c(C(=O)N/N=C/c3ccc(OC)c(OC)c3)cn4C3CC3)CC2)cc1OC | 2.72 | 7.28 |

Test system: TK-10 renal
Assay: inhibition of tumour cell growth, NCI panel, 48 h

| Structure (SMILES) | GI50 [µM] | TGI [µM] |
| --- | --- | --- |
| Cc1nc2sc(C(=O)Nc3cccc(Cl)c3C)c(N)c2cc1C(=O)/C=C/c1ccccc1 | 1.06 | 4.54 |
| C=C1C(=O)O[C@H]2[C@H]1CC/C(CNC(=O)c1cc3cc(OC)ccc3[nH]1)=C\CC[C@@]1(C)O[C@@H]21 | 1.88 | 4.61 |
| O=S(=O)(NC1=NCCN1C(=S)SN1CCn2c1nsc2=S)c1ccc(Br)cc1 | 22 | 83.5 |
| CC(=O)N[C@H]1C=C[C@@H]2/C=C(C)/C=C/[C@@H](C)[C@H]([C@H](C)[C@H](O)[C@@H](C)NC(C)=O)OC(=O)/C=C/C=C(C)\C=C\[C@]2(C)C1 | 0.00805 | 44.6 |
| O=C1c2ccccc2-c2c1c1ccccc1c(=O)n2CCCNCCCn1ccnc1 | 1.89 | 9.73 |
| ClCc1cccc(Cn2cnc3c(NC45CC6CC(CC(C6)C4)C5)ncnc32)c1 | 20.5 | 44.7 |
| CC(=O)CC(=O)Nc1ccc2ccccc2c1 | – | > 100 |
| COC(=O)c1cc2c(cc1Cl)SC(N(N(C)C)S(=O)(=O)c1ccc(Br)s1)=NS2(=O)=O | 29.7 | 82.1 |
| O=c1c2cc(Cl)ccc2oc2ccc(OCCCCCN3CCCCC3)cc12 | 8.06 | 15 |
| Cc1cc(I)cc(CN(C)CCCN2CCSCC2)c1O | 33.3 | 89.3 |
| O=C1c2ccccc2C(=O)N1CCCSc1ccccc1 | – | > 100 |
| CCOC(=O)Nc1nc2ccc(Cn3cccc3)cc2[nH]1 | – | > 100 |
| COc1cc(Nc2nccc(Nc3ccc4c(C)[nH]nc4c3)n2)cc(OC)c1OC | 0.908 | 3.88 |
| Nc1c(C(=O)c2ccc(Cl)cc2)sc(Nc2ccccc2)c1-c1nc2ccccc2s1 | 2.13 | > 21.4 |
| CCOC(=O)c1cc(C#N)c(=O)n(/N=C(\C)c2ccncc2)c1O | > 100 | > 100 |
| COc1ccc(/C=N\NC(=O)CN2CCN(c3cc4c(cc3F)c(=O)c(C(=O)N/N=C/c3ccc(OC)c(OC)c3)cn4C3CC3)CC2)cc1OC | 23.6 | > 100 |

Test system: HOP-62 NSCLC
Assay: inhibition of tumour cell growth, NCI panel, 48 h

| Structure (SMILES) | GI50 [µM] | TGI |
| --- | --- | --- |
| Cc1nc2sc(C(=O)Nc3cccc(Cl)c3C)c(N)c2cc1C(=O)/C=C/c1ccccc1 | 0.339 | 1.73 µM |
| C=C1C(=O)O[C@H]2[C@H]1CC/C(CNC(=O)c1cc3cc(OC)ccc3[nH]1)=C\CC[C@@]1(C)O[C@@H]21 | 3.22 | 13.8 µM |
| O=S(=O)(NC1=NCCN1C(=S)SN1CCn2c1nsc2=S)c1ccc(Br)cc1 | 52.4 | > 100 µM |
| CC(=O)N[C@H]1C=C[C@@H]2/C=C(C)/C=C/[C@@H](C)[C@H]([C@H](C)[C@H](O)[C@@H](C)NC(C)=O)OC(=O)/C=C/C=C(C)\C=C\[C@]2(C)C1 | – | 4.65 µM and > 45 µM |
| O=C1c2ccccc2-c2c1c1ccccc1c(=O)n2CCCNCCCn1ccnc1 | 0.29 | 1.13 µM |
| ClCc1cccc(Cn2cnc3c(NC45CC6CC(CC(C6)C4)C5)ncnc32)c1 | 20.5 | 37.5 µM |
| CC(=O)CC(=O)Nc1ccc2ccccc2c1 | – | > 100 µM |
| COC(=O)c1cc2c(cc1Cl)SC(N(N(C)C)S(=O)(=O)c1ccc(Br)s1)=NS2(=O)=O | 31.1 | > 100 µM |
| O=c1c2cc(Cl)ccc2oc2ccc(OCCCCCN3CCCCC3)cc12 | 7.03 | 14.4 µM |
| Cc1cc(I)cc(CN(C)CCCN2CCSCC2)c1O | 18.4 | 41.9 µM |
| O=C1c2ccccc2C(=O)N1CCCSc1ccccc1 | – | > 100 µM |
| CCOC(=O)Nc1nc2ccc(Cn3cccc3)cc2[nH]1 | – | > 67.1 µM |
| COc1cc(Nc2nccc(Nc3ccc4c(C)[nH]nc4c3)n2)cc(OC)c1OC | 1.08 | 8.34 µM |
| Nc1c(C(=O)c2ccc(Cl)cc2)sc(Nc2ccccc2)c1-c1nc2ccccc2s1 | 3.71 | 65.8 µM |
| CCOC(=O)c1cc(C#N)c(=O)n(/N=C(\C)c2ccncc2)c1O | > 100 | > 100 µM |
| COc1ccc(/C=N\NC(=O)CN2CCN(c3cc4c(cc3F)c(=O)c(C(=O)N/N=C/c3ccc(OC)c(OC)c3)cn4C3CC3)CC2)cc1OC | 2.74 | 9.54 µM |

Test system: SK-MEL-28 melanoma
Assay: inhibition of tumour cell growth, NCI panel, 48 h

| Structure (SMILES) | GI50 | TGI |
| --- | --- | --- |
| Cc1nc2sc(C(=O)Nc3cccc(Cl)c3C)c(N)c2cc1C(=O)/C=C/c1ccccc1 | 0.641 µM | 2.88 µM |
| C=C1C(=O)O[C@H]2[C@H]1CC/C(CNC(=O)c1cc3cc(OC)ccc3[nH]1)=C\CC[C@@]1(C)O[C@@H]21 | 1.62 µM | 4.23 µM |
| O=S(=O)(NC1=NCCN1C(=S)SN1CCn2c1nsc2=S)c1ccc(Br)cc1 | 72.5 µM | > 100 µM |
| CC(=O)N[C@H]1C=C[C@@H]2/C=C(C)/C=C/[C@@H](C)[C@H]([C@H](C)[C@H](O)[C@@H](C)NC(C)=O)OC(=O)/C=C/C=C(C)\C=C\[C@]2(C)C1 | 0.0306 µM and 0.00647 µM | 4.65 µM and > 45 µM |
| O=C1c2ccccc2-c2c1c1ccccc1c(=O)n2CCCNCCCn1ccnc1 | 2.94 µM | 8.92 µM |
| ClCc1cccc(Cn2cnc3c(NC45CC6CC(CC(C6)C4)C5)ncnc32)c1 | 25 µM | > 78.7 µM |
| CC(=O)CC(=O)Nc1ccc2ccccc2c1 | – | > 100 µM |
| COC(=O)c1cc2c(cc1Cl)SC(N(N(C)C)S(=O)(=O)c1ccc(Br)s1)=NS2(=O)=O | 17.8 µM | 35.3 µM |
| O=c1c2cc(Cl)ccc2oc2ccc(OCCCCCN3CCCCC3)cc12 | 1.09 µM | 2.66 µM |
| Cc1cc(I)cc(CN(C)CCCN2CCSCC2)c1O | 27.9 µM | 87.6 µM |
| O=C1c2ccccc2C(=O)N1CCCSc1ccccc1 | – | > 100 µM |
| CCOC(=O)Nc1nc2ccc(Cn3cccc3)cc2[nH]1 | – | > 100 µM |
| COc1cc(Nc2nccc(Nc3ccc4c(C)[nH]nc4c3)n2)cc(OC)c1OC | 3.28 µM | 14.4 µM |
| Nc1c(C(=O)c2ccc(Cl)cc2)sc(Nc2ccccc2)c1-c1nc2ccccc2s1 | 4.31 µM | > 100 µM |
| CCOC(=O)c1cc(C#N)c(=O)n(/N=C(\C)c2ccncc2)c1O | > 100 µM | > 100 µM |
| COc1ccc(/C=N\NC(=O)CN2CCN(c3cc4c(cc3F)c(=O)c(C(=O)N/N=C/c3ccc(OC)c(OC)c3)cn4C3CC3)CC2)cc1OC | 2 µM | 3.86 µM |

Test system: SN12C renal
Assay: inhibition of tumour cell growth, NCI panel, 48 h

| Structure (SMILES) | GI50 | TGI |
| --- | --- | --- |
| Cc1nc2sc(C(=O)Nc3cccc(Cl)c3C)c(N)c2cc1C(=O)/C=C/c1ccccc1 | 0.532 µM | 1.83 µM |
| C=C1C(=O)O[C@H]2[C@H]1CC/C(CNC(=O)c1cc3cc(OC)ccc3[nH]1)=C\CC[C@@]1(C)O[C@@H]21 | 1.7 µM | 4.87 µM |
| O=S(=O)(NC1=NCCN1C(=S)SN1CCn2c1nsc2=S)c1ccc(Br)cc1 | 31.6 µM | > 100 µM |
| CC(=O)N[C@H]1C=C[C@@H]2/C=C(C)/C=C/[C@@H](C)[C@H]([C@H](C)[C@H](O)[C@@H](C)NC(C)=O)OC(=O)/C=C/C=C(C)\C=C\[C@]2(C)C1 | 0.0212 µM and 0.00535 µM | 4.65 µM and > 45 µM |
| O=C1c2ccccc2-c2c1c1ccccc1c(=O)n2CCCNCCCn1ccnc1 | 0.367 µM | 1.29 µM |
| ClCc1cccc(Cn2cnc3c(NC45CC6CC(CC(C6)C4)C5)ncnc32)c1 | 21.2 µM | 50.9 µM |
| CC(=O)CC(=O)Nc1ccc2ccccc2c1 | – | > 100 µM |
| COC(=O)c1cc2c(cc1Cl)SC(N(N(C)C)S(=O)(=O)c1ccc(Br)s1)=NS2(=O)=O | 30.5 µM | > 100 µM |
| O=c1c2cc(Cl)ccc2oc2ccc(OCCCCCN3CCCCC3)cc12 | 5.59 µM | 11.9 µM |
| Cc1cc(I)cc(CN(C)CCCN2CCSCC2)c1O | 76.6 µM | > 100 µM |
| O=C1c2ccccc2C(=O)N1CCCSc1ccccc1 | – | > 100 µM |
| CCOC(=O)Nc1nc2ccc(Cn3cccc3)cc2[nH]1 | – | > 100 µM |
| COc1cc(Nc2nccc(Nc3ccc4c(C)[nH]nc4c3)n2)cc(OC)c1OC | 2.12 µM | 20.8 µM |
| Nc1c(C(=O)c2ccc(Cl)cc2)sc(Nc2ccccc2)c1-c1nc2ccccc2s1 | > 20.2 µM | > 100 µM |
| CCOC(=O)c1cc(C#N)c(=O)n(/N=C(\C)c2ccncc2)c1O | > 100 µM | > 100 µM |
| COc1ccc(/C=N\NC(=O)CN2CCN(c3cc4c(cc3F)c(=O)c(C(=O)N/N=C/c3ccc(OC)c(OC)c3)cn4C3CC3)CC2)cc1OC | 2.72 µM | 8.21 µM |
